Consider one compound from patent US5532267A, “Amidinonaphthyl furancarboxylate derivatives and acid addition salts therof” (Torii & Co., Ltd., priority 1992, dated 1996).

The term inhibition denotes the relative decrease from the control value, in per cent.

Data set [1] can be described thus: Toxicity in humans (Phase I study). In kind it is in vivo, human. Particulars: healthy male adult volunteers, capsules, 5 to 400 mg/man. Here is the method:
Toxicity in humans (Phase I study): This test was for confirmation of the safety of the drug (which was administered to healthy male adult volunteers). Taking into consideration the above toxicity tests, the compound of Example 22 was prepared in the form of capsules containing the compound in an increasing amount (from 5 mg/man to 400 mg/man (body weight 50-60 kg)).

For the next data set, the system named is kallikrein. Description: anti-kallikrein activity, hydrolysis of TAME (tosylarginine methyl ester). In kind it is biochemical. Here is the method: (§1) The values in Table 1 represent molar concentrations (IC50) of test compounds which inhibit 50% of the activity of each enzyme to hydrolyze TAME (tosylarginine methyl ester). The anti-trypsin, anti-plasmin, anti-kallikrein and anti-thrombin activities were determined according to the method of Muramatsu et al. (J. Biochem. (1965), volume 58, page 214).

Data set [2] deals with rabbit serum albumin (RSA) nephritis. Description: Effect of TO-195 on rabbit serum albumin (RSA) nephritis. In kind it is in vivo, rat (Sprague Dawley). The conditions noted are these: oral. The text has this: About 90% of human glomerular nephritis has been described as being immune complex nephritis which is caused by deposition in the glomeruli of immune complexes formed by the binding of antigens with antibodies in the blood. Effectiveness in treating rabbit serum albumin (RSA) nephritis in rats, which is known as an experimental model of nephritis caused by antigen-antibody reaction (Folia pharmacol. japon, 78: 491-499 (1981)), is shown below:
Sprague Dawley rats were immunized by subcutaneous injection in the back of 3 mg rabbit serum albumin in complete Freud's adjuvant (CFA). Two weeks after the subcutaneous injection, the rats were administered 1 mg of RSA (in saline) into the tail vein every other day for 10 weeks. Seven weeks after the first subcutaneous injection, the rats were also boosted with 3 mg RSA as in the first subcutaneous injection. The control group was injected with saline. Two weeks after the first IV injection, rats with more than 100 mg/day proteinurea after IV administration of RSA were divided into two groups each consisting of five rats. One group was orally given 30 mg/kg of TO-195 (in a suspension in water) twice a day for 20 days. The other group (untreated) and the control group were given distilled water p.o. (oral administration). The index of effectiveness of TO-195 was protein concentration in urine.

In another data set the target is T1, trypsin (Bos taurus, UniProt P00760).
T1 sequence (P00760 24-246): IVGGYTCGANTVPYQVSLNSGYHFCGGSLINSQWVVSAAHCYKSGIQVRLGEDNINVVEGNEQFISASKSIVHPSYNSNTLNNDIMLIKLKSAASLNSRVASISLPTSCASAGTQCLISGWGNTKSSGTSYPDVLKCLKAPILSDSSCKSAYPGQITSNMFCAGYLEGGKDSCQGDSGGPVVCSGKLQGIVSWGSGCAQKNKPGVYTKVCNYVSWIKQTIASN
In words: anti-trypsin activity, hydrolysis of TAME (tosylarginine methyl ester). In kind it is biochemical.

For data set [3], the system named is Masugi's nephritis. In words: Effectiveness in treating Masugi's nephritis (experimental glomerulonephritis), protein in urine. It is filed as in vivo, rat. The conditions noted are these: po, 30 mg/kg. Here is the method:
[…] […] As the index to effectiveness, the protein concentration in urine was determined. That is, when inflammation develops in the kidney, it causes damage to renal tubules, etc., and a resultant increase in protein concentration in urine.

For the next data set, the target named is plasmin (Homo sapiens, UniProt P00747). Description: anti-plasmin activity, hydrolysis of TAME (tosylarginine methyl ester). The conditions noted are these: hydrolysis of TAME; read-out: Pla: molar concentration inhibiting 50% of enzyme activity (IC50). In kind it is biochemical. Here is the method:
as §1

The subject of data set [4] is Masugi's nephritis. In words: Effect of TO-195 on Masugi's nephritis. Particulars: oral. In kind it is in vivo, rat.
Data set [5] in a line: monkey subacute toxicity test. Particulars: oral. It is filed as in vivo. On the procedure:
The compound of Example 22 was tested in three groups (five monkeys per group) of monkeys at dosages of (1) 3 mg/kg/day, (2) 30 mg/kg/day, and (3) 300 mg/kg/day; the compound was administered orally (dose volume was 2 ml/kg) by gavage once a day for 13 weeks. Administration was followed by 20 ml sterile water per animal. Control monkeys received only the vehicle (sterile water for injection, U.S.P.) on the same regimen as the experimental groups. All doses were administered using a 18 French rubber catheter attached to a syringe.

For another data set, the target named is T2, C1r (Homo sapiens, UniProt P00736).
T2 sequence (P00736 18-705): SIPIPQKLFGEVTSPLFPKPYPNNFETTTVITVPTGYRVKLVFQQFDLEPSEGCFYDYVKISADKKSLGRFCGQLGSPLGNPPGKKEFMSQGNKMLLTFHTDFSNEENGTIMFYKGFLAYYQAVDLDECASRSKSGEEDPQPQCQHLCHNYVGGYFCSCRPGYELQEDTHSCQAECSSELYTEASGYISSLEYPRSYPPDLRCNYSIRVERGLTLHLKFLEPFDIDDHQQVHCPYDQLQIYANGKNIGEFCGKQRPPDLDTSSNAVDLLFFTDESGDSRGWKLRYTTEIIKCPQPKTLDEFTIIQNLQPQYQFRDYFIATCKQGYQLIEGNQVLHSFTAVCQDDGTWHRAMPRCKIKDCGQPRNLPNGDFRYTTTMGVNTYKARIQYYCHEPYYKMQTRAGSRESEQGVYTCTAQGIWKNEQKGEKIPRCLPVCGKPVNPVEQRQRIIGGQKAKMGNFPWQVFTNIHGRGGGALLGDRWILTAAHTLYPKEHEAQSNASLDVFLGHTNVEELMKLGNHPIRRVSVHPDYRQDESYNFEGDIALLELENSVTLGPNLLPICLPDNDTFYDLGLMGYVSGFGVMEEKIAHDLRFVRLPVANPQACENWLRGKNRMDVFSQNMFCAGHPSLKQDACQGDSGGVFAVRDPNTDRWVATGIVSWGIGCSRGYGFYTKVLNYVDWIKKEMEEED
In words: anti-complement (anti-C1 esterase) activity, C1r hydrolysis of AAME (acetyl-arginine methyl ester). In kind it is biochemical.

plasmin, sequence (P00747 581-810 limits assumed, species assumed): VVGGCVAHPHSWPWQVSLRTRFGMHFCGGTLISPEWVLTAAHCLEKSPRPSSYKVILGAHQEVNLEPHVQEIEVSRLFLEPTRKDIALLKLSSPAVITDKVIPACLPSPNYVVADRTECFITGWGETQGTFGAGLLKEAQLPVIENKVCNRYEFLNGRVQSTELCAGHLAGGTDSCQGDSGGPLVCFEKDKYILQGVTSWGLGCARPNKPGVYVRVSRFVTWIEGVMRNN
plasmin, sequence (P00747 97-580 partner limits assumed, species assumed): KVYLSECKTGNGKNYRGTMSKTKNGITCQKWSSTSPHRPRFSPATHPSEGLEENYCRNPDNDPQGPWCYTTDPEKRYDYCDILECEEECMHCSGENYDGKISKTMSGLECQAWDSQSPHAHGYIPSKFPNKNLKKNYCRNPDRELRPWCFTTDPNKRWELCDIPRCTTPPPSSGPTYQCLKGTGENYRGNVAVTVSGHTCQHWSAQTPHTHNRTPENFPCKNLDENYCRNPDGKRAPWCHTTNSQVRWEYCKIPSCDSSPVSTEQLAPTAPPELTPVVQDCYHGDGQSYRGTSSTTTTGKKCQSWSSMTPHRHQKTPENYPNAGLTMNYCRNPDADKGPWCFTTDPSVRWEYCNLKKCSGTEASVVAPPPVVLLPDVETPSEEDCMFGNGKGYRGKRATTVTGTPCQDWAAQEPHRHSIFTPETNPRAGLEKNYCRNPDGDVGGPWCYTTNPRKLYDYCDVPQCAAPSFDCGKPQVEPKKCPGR

With `Cl.N=C(N)c1ccc2cc(OC(=O)c3ccc(CNC(=O)CCCC(=O)O)o3)ccc2c1` [Example 22, 6-Amidino-2-naphthyl 5-(4-carboxybutyrylaminomethyl)furan-2-carboxylate hydrochloride], the “adverse side effects (in words)” value in [1] is listed as “No adverse side effects were found”. Further, in the data set with kallikrein, the “kallikrein inhibition (in words)” value is reported as “inhibitor”. Moreover, the IC50 is 0.47 µM with kallikrein (hydrolysis of TAME, read-out: Kal: molar concentration inhibiting 50% of enzyme activity (IC50)); 0.43 µM at trypsin (hydrolysis of TAME, read-out: Try: molar concentration inhibiting 50% of enzyme activity (IC50)); 0.43 µM at plasmin. Further, the “Protein concentration in urine” value came to 152.1 ± 49.11 mg/mL in data set [2] (30 mg/kg twice a day, 20 days, mean ± standard deviation, five animals, untreated 385.9 ± 187.23, control 8.5 ± 2.62) and 3.0 ± 2.0 mg/mL in the data set on Masugi's nephritis [3]. Further, the “N-acetyl-β-D-glucosamineidase excretion (in words)” value in [2] (30 mg/kg×2/day) was “decreased”. In addition, the “alkaline phosphatase excretion (in words)” value in data set [2] (30 mg/kg×2/day) is “decreased”. For the same compound, the “urinary protein excretion (in words)” value was “decreased urinary protein excretion” in [2] (30 mg/kg×2/day); “significantly decreased urinary protein excretion” with Masugi's nephritis [4] (3, 10, or 30 mg/kg×2/day, from 2 days before through day 10 after nephrotoxin); “significantly decreased urinary protein excretion” in the data set with Masugi's nephritis [4] (twice a day from day 4 to day 10 after nephrotoxin). Further, the “trypsin inhibition (in words)” value on trypsin is recorded as “inhibitor”. Besides, in the data set with Masugi's nephritis [4] (10 and 30 mg/kg×2/day, compared to control group), the “Light microscopic examination of the glomeruli (in words)” value is “significant anti-nephritic effect”. The “general conditions, biochemical examination, and survival (in words)” value in data set [5] (13 weeks, up to 300 mg/kg/day) is “no changes were found”. Moreover, the “toxicity (in words)” value in data set [5] (three months, even at 300 mg/kg) is listed as “no toxicity was recognized”. Besides, at C1r, the “C1r inhibition (in words)” value is “inhibitor”. Moreover, the inhibition at 10 µM on C1r (at a concentration of 1 × 10^-5 M, read-out: Clr: percentage inhibition) was determined as 49%.
